Source: publication PMC12533185 (Nature Communications, 2025)

Experiments:
[1] = test system: mechanical loading PTOA mice; assay: Walking speed in PTOA mice; type: in vivo, mouse; details: after six weeks, MP 4 mg/kg weekly
[2] = test system: mechanical loading PTOA mice; assay: OARSI score in PTOA mice; type: in vivo, mouse
[3] = test system: mechanical loading PTOA mice; assay: Micro-CT: osteophyte size in PTOA mice; type: in vivo, mouse
[4] = test system: mechanical loading PTOA mice; assay: Joint histology; type: in vivo, mouse; details: six weeks
Col2α1 mRNA = Col2α1 mRNA expression in ATDC5 cells; type: cell-based, mouse; details: 10 μg/ml recombinant insulin, 7 days

Row | Molecule | walking speed, % of initial level [1] | OARSI score relative to MP&si-VPN@HA [2] | block of osteophytes formation and ectopic mineralization [3] | joint histology [4] | increase of Col2α1 expression (Col2α1 mRNA)
1 | C[C@H]1C[C@@H]2[C@H]([C@@H](O)C[C@@]3(C)[C@H]2CC[C@]3(O)C(=O)CO)[C@@]2(C)C=CC(=O)C=C12 [MP, methylprednisolone] | 18.22% | 5.67 fold | Neither MP nor si-VPN-2 could significantly block osteophytes formation and ectopic mineralization | large proteoglycan loss and cartilage erosion | 
2 | insulin: recombinant insulin used to induce chondrogenesis of ATDC5 cells |  |  |  |  | ~ 10 fold
